Results as given in ChEMBL document CHEMBL6092203, “Discovery of Novel PROTAC-Based HPK1 Degraders with High Potency and Selectivity for Cancer Immunotherapy” (J Med Chem, 2024).
The source made the active and inactive calls. The rule behind the calls is not given here.

Tests used:
[1] = target: T1, Protein cereblon/Mitogen-activated protein kinase kinase kinase kinase 1 (Homo sapiens, UniProt Q92918+Q96SW2); test: PROTAC activity at CRBN/HPK1 in human Jurkat cells assessed as HPK1 degradation at 1 uM by Western blotting analysis; assay type: cell-based; details: time 4-72 hrs
T1 sequence (Q92918 whole entry, looked up): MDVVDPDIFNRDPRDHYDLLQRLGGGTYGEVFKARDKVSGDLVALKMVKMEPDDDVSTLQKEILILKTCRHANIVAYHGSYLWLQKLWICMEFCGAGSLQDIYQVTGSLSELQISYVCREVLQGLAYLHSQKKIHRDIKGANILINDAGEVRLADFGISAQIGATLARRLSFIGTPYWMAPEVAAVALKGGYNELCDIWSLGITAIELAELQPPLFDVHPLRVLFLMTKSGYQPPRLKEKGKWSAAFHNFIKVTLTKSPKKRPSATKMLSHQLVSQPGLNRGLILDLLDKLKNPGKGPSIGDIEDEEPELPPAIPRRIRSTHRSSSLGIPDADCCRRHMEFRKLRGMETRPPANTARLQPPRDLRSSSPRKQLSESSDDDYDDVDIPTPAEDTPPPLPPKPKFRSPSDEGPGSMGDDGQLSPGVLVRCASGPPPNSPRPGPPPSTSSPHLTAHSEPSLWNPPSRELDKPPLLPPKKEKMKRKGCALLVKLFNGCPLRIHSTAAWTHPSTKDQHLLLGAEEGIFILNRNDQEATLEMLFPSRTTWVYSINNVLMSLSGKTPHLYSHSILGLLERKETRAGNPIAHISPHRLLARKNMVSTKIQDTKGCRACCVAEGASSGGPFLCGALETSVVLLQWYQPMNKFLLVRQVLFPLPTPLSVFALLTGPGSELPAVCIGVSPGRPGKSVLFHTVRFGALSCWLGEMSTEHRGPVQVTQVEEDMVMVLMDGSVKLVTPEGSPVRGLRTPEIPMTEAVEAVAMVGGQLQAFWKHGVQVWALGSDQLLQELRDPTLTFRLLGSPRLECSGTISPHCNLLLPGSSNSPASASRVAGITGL
T1 sequence (Q96SW2 whole entry, looked up): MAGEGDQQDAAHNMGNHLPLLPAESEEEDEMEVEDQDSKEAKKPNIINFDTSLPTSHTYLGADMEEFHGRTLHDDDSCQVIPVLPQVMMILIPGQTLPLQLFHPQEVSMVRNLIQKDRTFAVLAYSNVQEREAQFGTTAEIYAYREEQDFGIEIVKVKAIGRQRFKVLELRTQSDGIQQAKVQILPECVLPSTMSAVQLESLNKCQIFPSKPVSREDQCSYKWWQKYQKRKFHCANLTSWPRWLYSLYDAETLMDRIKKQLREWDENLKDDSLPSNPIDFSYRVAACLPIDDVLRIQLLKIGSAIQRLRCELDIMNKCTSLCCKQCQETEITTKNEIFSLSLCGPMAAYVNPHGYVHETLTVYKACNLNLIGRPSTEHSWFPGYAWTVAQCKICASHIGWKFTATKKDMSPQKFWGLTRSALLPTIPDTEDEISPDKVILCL

[2] = target: T1, Protein cereblon/Mitogen-activated protein kinase kinase kinase kinase 1; test: PROTAC activity at CRBN/HPK1 in human Jurkat cells assessed as HPK1 degradation at 1 uM after 4 hrs by Western blotting analysis; assay type: cell-based
Jurkat [3] = test: Induction of p-SLP76 at Ser376 protein degradation in human Jurkat cells incubated for 24 hrs by Western blotting analysis relative to control; assay type: cell-based
Jurkat [4] = test: Effect on SLP76 total protein expression in human Jurkat cells at 1 to 2000 nM incubated for 24 hrs by Western blotting assay; assay type: functional, cell-based; details: dose 1-2000 nM
[5] = Induction of INFgamma secretion in human T-cells incubated for 48 hrs by ELISA; assay type: functional, cell-based; details: T-cell
Jurkat [6] = test: Induction of GLK degradation in human Jurkat cells at 1 to 1000 nM incubated for 24 hrs by Western blotting analysis; assay type: cell-based; details: dose 1-1000 nM
[7] = Plasma protein binding in mouse at 10 uM incubated for 6 hrs by equilibrium dialysis based LC-MS/MS method; assay type: ADME, cell-free; details: read-out: PPB (converted)
[8] = Plasma protein binding in rat at 10 uM incubated for 6 hrs by equilibrium dialysis based LC-MS/MS method; assay type: ADME, cell-free; details: read-out: PPB (converted)
[9] = Metabolic stability in human liver microsomes assessed as intrinsic clearance at 1 uM incubated for 45 mins by LC-MS/MS method; assay type: ADME, Microsome; details: read-out: CLH
[10] = Initial plasma concentration in C57BL/6J mouse at 2 mg/kg, iv measured upto 24 hrs by LC-MS analysis; assay type: ADME, organism-based
[11] = Half-life in C57BL/6J mouse at 2 mg/kg, iv measured upto 24 hrs by LC-MS analysis; details: in vivo
[12] = Clearance in C57BL/6J mouse at 2 mg/kg, iv measured upto 24 hrs by LC-MS analysis; details: in vivo
[13] = Half-life in C57BL/6J mouse at 10 mg/kg, po measured upto 24 hrs by LC-MS analysis; details: in vivo
[14] = Initial plasma concentration in Sprague-Dawley rat at 2 mg/kg, iv measured upto 24 hrs by LC-MS analysis; assay type: ADME, organism-based
[15] = Clearance in Sprague-Dawley rat at 2 mg/kg, iv measured upto 24 hrs by LC-MS analysis; details: in vivo
[16] = Tmax in Sprague-Dawley rat at 1 mg/kg, po measured upto 24 hrs by LC-MS analysis; assay type: ADME, organism-based; details: in vivo
[17] = Initial plasma concentration in Beagle dog at 1 mg/kg, iv measured upto 24 hrs by LC-MS analysis; assay type: ADME, organism-based, Canis lupus familiaris; details: in vivo
[18] = Clearance in Beagle dog at 1 mg/kg, iv measured upto 24 hrs by LC-MS analysis; details: in vivo
[19] = Volume of distribution at steady state in Beagle dog at 1 mg/kg, iv measured upto 24 hrs by LC-MS analysis; assay type: ADME, organism-based, Canis lupus familiaris; details: in vivo
[20] = Half-life in Beagle dog at 5 mg/kg, po measured upto 24 hrs by LC-MS analysis; details: in vivo
Cytochrome P450 3A4 = Cytochrome P450 3A4 (Homo sapiens, UniProt P08684); test: Inhibition of CYP3A4 in human liver microsomes using testosterone as substrate in presence of NADPH; assay type: ADME, Microsome
Sequence of Cytochrome P450 3A4 (P08684 whole entry): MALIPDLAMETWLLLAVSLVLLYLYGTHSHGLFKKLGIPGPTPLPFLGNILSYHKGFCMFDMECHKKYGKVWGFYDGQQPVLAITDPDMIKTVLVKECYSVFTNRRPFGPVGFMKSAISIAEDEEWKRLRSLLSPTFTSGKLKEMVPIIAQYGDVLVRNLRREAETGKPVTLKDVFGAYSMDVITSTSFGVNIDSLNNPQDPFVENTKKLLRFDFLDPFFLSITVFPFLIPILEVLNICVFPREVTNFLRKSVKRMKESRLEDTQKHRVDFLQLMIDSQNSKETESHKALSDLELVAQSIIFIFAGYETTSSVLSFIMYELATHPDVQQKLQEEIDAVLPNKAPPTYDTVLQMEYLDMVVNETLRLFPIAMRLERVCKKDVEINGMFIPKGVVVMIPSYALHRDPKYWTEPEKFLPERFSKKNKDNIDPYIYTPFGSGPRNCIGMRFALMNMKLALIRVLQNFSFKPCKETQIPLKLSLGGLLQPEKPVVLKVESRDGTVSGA

[21] = Drug metabolism in mouse hepatocytes assessed as phase 1 metabolites formation at 10 uM incubated for 120 mins by UHPLC-UV/MS/MS method; assay type: ADME, cell-based, Hepatocyte; details: 2 h
[22] = Drug metabolism in human hepatocytes assessed as phase 2 metabolites formation at 10 uM incubated for 120 mins by UHPLC-UV/MS/MS method; assay type: ADME, cell-based, Hepatocyte; details: 2 h
[23] = Clearance in mouse relative to hepatic blood flow; details: in vivo
[24] = Drug distribution in rat liver measured after 0.5 to 6 hrs; assay type: ADME, tissue-based; details: in vivo, time 0.5-6 hrs
[25] = Drug distribution in rat heart measured after 0.5 to 6 hrs; assay type: ADME, tissue-based; details: in vivo, time 0.5-6 hrs
MC-38 [26] = test: Antitumor activity against mouse MC38 cells implanted in C57BL/6J mouse assessed as tumor growth inhibition at 1 mg/kg, po BID measured after 4 weeks; assay type: functional; details: MC-38, 672 h, read-out: TGI
MC-38 [27] = test: Synergistic antitumor activity against mouse MC38 cells implanted in C57BL/6J mouse assessed as tumor growth inhibition at 0.5 mg/kg, po bid measured after 4 weeks in presence of 5 mg/kg anti-PD1 and measured twice a week; assay type: functional; details: MC-38, 672 h, read-out: TGI
MC-38 [28] = test: Antitumor activity against mouse MC38 cells implanted in C57BL/6J mouse assessed as reduction in tumor weight at 100 mg/kg, po QD administered for 3 to 4 weeks (reference value: 1.79 +/- 0.24 g); assay type: functional; details: time 3-4 weeks
MC-38 [29] = test: Synergistic antitumor activity against mouse MC38 cells implanted in C57BL/6J mouse assessed as reduction in tumor weight at 1 mg/kg, po bid administered for 3 to 4 weeks in presence of 5 mg/kg anti-PD1 and measured twice a week (reference value: 1.79 +/- 0.24 g); assay type: functional; details: time 3-4 weeks
MC-38 [30] = test: Synergistic antitumor activity against mouse MC38 cells implanted in C57BL/6J mouse assessed as reduction in tumor weight at 0.5 mg/kg, po bid administered for 3 to 4 weeks in presence of 5 mg/kg anti-PD1 and measured twice a week (reference value: 1.79 +/- 0.24 g); assay type: functional; details: time 3-4 weeks
MC-38 [31] = test: Antitumor activity against mouse MC38 cells implanted in C57BL/6J mouse assessed as tumor weight inhibition rate at 0.5 mg/kg, po BID measured after 4 weeks; assay type: functional; design: scale not given: the % may be the effect or the level left
[32] = Tmax in male Sprague-Dawley rat at 2 mg/kg/day, po measured at day 14; assay type: ADME, organism-based; details: in vivo, time 14 day
[33] = Tmax in male Sprague-Dawley rat at 30 mg/kg/day, po measured at day 14; assay type: ADME, organism-based; details: in vivo, time 14 day
[34] = Tmax in female Sprague-Dawley rat at 100 mg/kg/day, po measured at day 14; assay type: ADME, organism-based; details: in vivo, time 14 day
[35] = Toxicity in Sprague-Dawley rat assessed as efficacy dose exposure measured after 14 days; details: in vivo
in vivo [36] = details: Sprague-Dawley, rat, po, 1 mg/kg
in vivo [37] = details: female, Sprague-Dawley, rat, po, 2 mg/kg
in vivo [38] = details: male, Sprague-Dawley, rat, po, 2 mg/kg
in vivo [39] = details: female, Sprague-Dawley, rat, po, 100 mg/kg
in vivo [40] = details: male, Sprague-Dawley, rat, po, 100 mg/kg
in vivo [41] = details: female, Sprague-Dawley, rat, po, 30 mg/kg
in vivo [42] = details: female, Sprague-Dawley, rat, po, 100 mg/kg; remark: listed apart in the source
in vitro = details: dog, liver microsomes

In the case of `O=C1CCN(c2cc(C(=O)N3CCC(CC4CCN(c5ccc(-c6cnc7[nH]cc(-c8cnn(CC(F)(F)F)c8)c7n6)cn5)CC4)CC3)ccc2Cl)C(=O)N1`, the Activity [1] is reported as “Time-dependent-effect”, the Activity [2] is reported as 55.6% and the Emax (Jurkat [3]) is reported as 82.1%. The Activity (Jurkat [4]) was “inactive”, the EC50 [5] was 32.6 nM and the Activity (Jurkat [6]) was “inactive”. It also gave a fraction unbound at 6 h, 10 µM [7] of 0.0025, a fraction unbound at 6 h, 10 µM [8] of 0.0008 and a microsomal CLint at 1 µM [9] of 3.48 µL/min/mg. It also gave a C0 at 24 h [10] of 1590 ng/mL, a half-life at 24 h [11] of 1.17 h and a clearance at 24 h [12] of 6 mL/min/kg. For the same compound, the half-life at 24 h [13] was 3.44 h, the C0 at 24 h [14] was 3380 ng/mL and the clearance at 24 h [15] was 4.17 mL/min/kg. For the same compound, the Tmax [16] was 3.17 h, the C0 [17] was 794 ng/mL and the clearance at 24 h [18] was 17 mL/min/kg. For the same compound, the Vdss [19] was 0.386 L/kg, the half-life at 24 h [20] was 4.23 h and the IC50 (Cytochrome P450 3A4) was > 10000 nM. The Drug metabolism [21] was “metabolite_detected”, the Drug metabolism [22] was “metabolite_detected” and the clearance [23] was 27 mL/min/kg. The Drug uptake [24] was “Active”, the Drug uptake [25] was “Active” and the inhibition in vivo at 1 mg/kg (MC-38 [26]) was 17.5%. The inhibition in vivo at 0.5 mg/kg (MC-38 [27]) was 91%, the Activity (MC-38 [28]) was 0.92 g and the Activity (MC-38 [29]) was 0.47 g. For the same compound, the Activity (MC-38 [30]) was 0.24 g, the Activity (MC-38 [31]) was 42.22% and the Tmax [32] was 10 h. The Tmax [33] was 8 h, the Tmax [34] was 8.67 h and the AUC at 336 h [35] was 291 ng·h/mL. For the same compound, the Cmax at 24 h (in vivo [36]) was 98.7 ng/mL, the Cmax at 24 h (in vivo [37]) was 63.9 ng/mL and the Cmax at 24 h (in vivo [38]) was 84 ng/mL. For the same compound, the Cmax at 24 h (in vivo [39]) was 11200 ng/mL, the Cmax at 336 h (in vivo [40]) was 11100 ng/mL and the AUC at 336 h (in vivo [41]) was 46000 ng·h/mL. The AUC at 336 h (in vivo [42]) was 121000 ng·h/mL and the half-life at 0.75 h, 1 µM (in vitro) was 1.14 h.
